Experimental data taken from ChEMBL document CHEMBL3102833, “Design and synthesis of guanylthiourea derivatives as potential inhibitors of Plasmodium falciparum dihydrofolate reductase enzyme” (Bioorg Med Chem Lett, 2014).

Experiment: Inhibition of Plasmodium falciparum recombinant dihydrofolate reductase expressed in Escherichia coli BL21 (DE3)

Compound	IC50
N=C(N=C(N)N)SCc1cccc(I)c1	0.4 µM
N=C(N)/N=C(\N)SCc1cccc(CS/C(N)=N/C(=N)N)c1	100 µM
